Data taken from ChEMBL document CHEMBL1133024, “Antineoplastic agents. 443. Synthesis of the cancer cell growth inhibitor hydroxyphenstatin and its sodium diphosphate prodrug” (J Med Chem, 2000).
Values after ≈ are worked out from the molar mass of the structure shown.

How the values were obtained:
[1] = test system: KM-20L2; assay: Evaluated for growth inhibition (anticancer activity) of Human colon KM20L2 cancer cell line; format: functional
[2] = test system: Micrococcus luteus; assay: Antimicrobial activity against Micrococcus luteus.; format: functional
[3] = test system: BXPC-3; assay: Evaluated for growth inhibition (anticancer activity) of human pancreas-a BXPC-3 cell line.; format: functional
[4] = test system: DU-145; assay: Evaluated for growth inhibition (anticancer activity) of Human prostate cancer DU-145 cell line; format: functional
[5] = test system: P388; assay: Evaluated for growth inhibition (anticancer activity) of Murine P388 lymphocytic leukemia cell line; format: functional; conditions: Mus musculus
[6] = test system: SF-295; assay: Evaluated for growth inhibition (anticancer activity) of Human CNS cancer SF-295 cell line; format: functional
[7] = test system: NCI-H460; assay: Evaluated for growth inhibition (anticancer activity) of Human lung-NSC cancer NCI-H460 cell line; format: functional
[8] = test system: RPMI-7951; assay: Evaluated for growth inhibition (anticancer activity) of Human melanoma cancer RPMI-7951 cell line; format: functional
[9] = test system: NCI-H460; assay: Evaluated for growth inhibition (anticancer activity) of Human lung-NSC cancer NCI-H460 cell line
[10] = target: Tubulin alpha chain (Sus scrofa, UniProt P02550); assay: Inhibition of tubulin polymerization; format: functional
[11] = test system: SF-295; assay: Evaluated for growth inhibition (anticancer activity) in Human CNS cancer SF-295 cell line; format: functional
[12] = target: Tubulin alpha chain (Sus scrofa) (UniProt P02550); assay: Inhibition of colchicine binding; format: functional; conditions: concentration not given here
[13] = test system: Cryptococcus neoformans; assay: Evaluated for antimicrobial activity against Cryptococcus neoformans; format: functional
[14] = test system: Escherichia coli; assay: Evaluated for antimicrobial activity against Escherichia coli; format: functional
[15] = test system: Candida albicans; assay: Evaluated for antimicrobial activity against Candida albicans; format: functional
[16] = test system: Neisseria gonorrhoeae; assay: Evaluated for antimicrobial activity against Neisseria gonorrhoeae; format: functional
[17] = test system: Stenotrophomonas maltophilia; assay: Evaluated for antimicrobial activity against Stenotrophomonas maltophilia; format: functional
[18] = test system: Staphylococcus aureus; assay: Evaluated for antimicrobial activity against Staphylococcus aureus; format: functional
[19] = test system: DU-145; assay: Evaluated for growth inhibition (anticancer activity) in Human prostate cancer DU-145 cell line; format: functional

Sequence of Tubulin alpha chain (P02550 whole entry, looked up): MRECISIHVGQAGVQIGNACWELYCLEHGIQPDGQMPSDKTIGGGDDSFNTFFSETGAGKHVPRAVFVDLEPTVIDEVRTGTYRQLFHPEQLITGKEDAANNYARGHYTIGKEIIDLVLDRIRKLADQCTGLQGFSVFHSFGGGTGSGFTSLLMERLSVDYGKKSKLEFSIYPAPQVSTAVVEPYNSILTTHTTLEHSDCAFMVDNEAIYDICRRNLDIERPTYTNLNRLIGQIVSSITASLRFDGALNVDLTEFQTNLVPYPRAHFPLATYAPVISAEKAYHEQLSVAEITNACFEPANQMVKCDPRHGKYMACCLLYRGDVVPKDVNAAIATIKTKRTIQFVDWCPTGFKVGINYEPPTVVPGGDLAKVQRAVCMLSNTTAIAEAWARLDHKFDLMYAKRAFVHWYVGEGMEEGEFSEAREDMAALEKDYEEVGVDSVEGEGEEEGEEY
Sequence of Tubulin alpha chain (Sus scrofa) (P02550 whole entry, looked up): as above

| GI50 [3] | GI50 [4] | GI50 [5] | GI50 [7] | SMILES | GI50 [1] | GI50 [6] | IC50 [10] | also measured |
| --- | --- | --- | --- | --- | --- | --- | --- | --- |
| 5.3 µg/mL | 0.3 µg/mL | 0.0336 µg/mL | 0.35 µg/mL | COc1cc(C(=O)c2ccc(OC)c(OP(=O)([O-])[O-])c2OP(=O)([O-])[O-])cc(OC)c1OC.[Na+].[Na+].[Na+].[Na+] | 33.5 µg/mL | 0.23 µg/mL | > 40000 nM | – |
| 4.4 µg/mL (≈ 13.2 µM) | 0.17 µg/mL (≈ 0.512 µM) | 0.3 µg/mL (≈ 0.903 µM) | – | COc1ccc(/C=C\c2cc(OC)c(OC)c(OC)c2)c(O)c1O [COMBRETASTATIN A-1] | 0.061 µg/mL (≈ 0.184 µM) | – | 1100 nM | GI50 [9]: 0.74 µg/mL (≈ 2.23 µM); inhibition [12]: 99.6% |
| 14.2 µg/mL (≈ 39.2 µM) | 32.5 µg/mL (≈ 89.7 µM) | > 10 µg/mL | 19 µg/mL (≈ 52.4 µM) | COc1cc(C(=O)c2ccc(OC)c(OC)c2OC)cc(OC)c1OC | – | 23.1 µg/mL (≈ 63.7 µM) | – | – |
| – | – | – | – | COc1ccc(Br)c(C=O)c1OC(C)=O | – | – | – | MIC [13]: 6.25 ug disk-1; MIC [14]: 50 ug disk-1; MIC [15]: 12.5 ug disk-1; MIC [16]: 25 ug disk-1 |
| – | – | – | – | COc1ccc(Br)c(O)c1O | – | – | – | MIC [17]: 25 ug disk-1; MIC [14]: 50 ug disk-1; MIC [16]: <6.25 ug disk-1; MIC [18]: 25 ug disk-1 |
| > 10 µg/mL | > 10 µg/mL | > 10 µg/mL | > 10 µg/mL | COCOc1c(OC)ccc(C(=O)c2cc(OC)c(OC)c(OC)c2)c1OCOC | – | > 10 µg/mL | – | GI50 [8]: > 10 µg/mL; inhibition [12]: > 10% |
| – | – | – | – | COc1ccc(Br)c(C=O)c1O | – | – | – | MIC [13]: 12.5 ug disk-1; MIC [15]: 50 ug disk-1; MIC [16]: 12.5 ug disk-1 |
| 1.5 µg/mL | – | < 0.01 µg/mL | 0.038 µg/mL | COc1cc(/C=C\c2ccc(OC)c(OP(=O)([O-])[O-])c2OP(=O)([O-])[O-])cc(OC)c1OC.[Na+].[Na+].[Na+].[Na+] | – | 0.036 µg/mL | – | GI50 [19]: 0.034 µg/mL |
| 0.39 µg/mL (≈ 1.23 µM) | 0.0008 µg/mL (≈ 0.00253 µM) | 0.0003 µg/mL (≈ 0.000948 µM) | 0.0006 µg/mL (≈ 0.0019 µM) | COc1ccc(/C=C\c2cc(OC)c(OC)c(OC)c2)cc1O [COMBRETASTATIN A4] | 0.34 µg/mL (≈ 1.07 µM) | > 0.001 µg/mL | – | – |
| – | – | – | – | COc1cccc(C=O)c1OC(C)=O | – | – | – | MIC [13]: 25 ug disk-1; MIC [17]: 50 ug disk-1 |

| SMILES | GI50 [3] | GI50 [4] | GI50 [5] | GI50 [7] | GI50 [1] | GI50 [6] | IC50 [10] | also measured |
| --- | --- | --- | --- | --- | --- | --- | --- | --- |
| COc1cc(C(=O)c2ccc(OC)c(OP(=O)(OCc3ccccc3)OCc3ccccc3)c2OP(=O)(OCc2ccccc2)OCc2ccccc2)cc(OC)c1OC | > 10 µg/mL | > 10 µg/mL | 2.55 µg/mL (≈ 2.98 µM) | > 10 µg/mL | 5.9 µg/mL (≈ 6.9 µM) | > 10 µg/mL | – | MIC [2]: 50 µg/mL (≈ 58.5 µM); GI50 [8]: > 10 µg/mL |
| COc1ccc(/C=C\c2cc(OC)c(OC)c(OC)c2)cc1OP(=O)([O-])[O-].[Na+].[Na+] [FOSBRETABULIN DISODIUM] | – | – | 0.0004 µg/mL | – | 0.53 µg/mL | – | > 40000 nM | GI50 [9]: 0.029 µg/mL; GI50 [11]: 0.036 µg/mL |
| COc1ccc(C(=O)c2cc(OC)c(OC)c(OC)c2)c(O)c1O [HYDROXYPHENSTATIN] | 3.5 µg/mL (≈ 10.5 µM) | 0.048 µg/mL (≈ 0.144 µM) | 0.315 µg/mL (≈ 0.942 µM) | 0.21 µg/mL (≈ 0.628 µM) | – | 0.04 µg/mL (≈ 0.12 µM) | 820 nM | GI50 [8]: 0.58 µg/mL (≈ 1.73 µM); inhibition [12]: 77% |
